Source: article PMC9571264 (Molecules, 2022)

What was measured:
[1] = tested on: Normal WISH Cells; assay: MTT cytotoxicity assay, normal WISH; format: cell-based; details: 48 h, read-out: IC50 (µM) ± SEM, Normal WISH Cells
Procedure: (§1) Cytotoxic activities of the synthesized derivatives were screened against leukemia (HL60), liver (HepG2), breast (MCF-7), and lung (A549) cancer cell lines and non-cancerous THLE2 and WISH cells at different concentrations [0.01–100 µM] for 48 h using the MTT assay (Table 1).
(§2) Human promyelocytic leukemia ”HL-60”, human hepatocellular carcinoma “HepG2”, human breast cancer “MCF-7”, human lung cancer “A549” cell lines, and two normal cell lines, THLE-2 as normal adult liver epithelial cells and WISH as normal epithelial cells, were obtained from American Type Culture Collection “Rockville, MD, USA”.
(§3) According to the manufacturer’s protocol, the cells were seeded in 96-well plates at a concentration of 5 × 10^4 cells per well (200 µL). Different concentrations of the tested compounds were used to test the cytotoxicity. […] A non-linear regression of curve fit was used to calculate the IC50.

[2] = tested on: Leukemia Cancer HL60; assay: MTT cytotoxicity assay, HL60; format: cell-based; details: Homo sapiens, HL-60, 48 h, read-out: IC50 (µM) ± SEM, Leukemia Cancer HL60
Procedure: as §1, §2, §3

Cc1c(Br)c(=O)oc2c(Br)c(OC(=O)/C=C/c3ccccc3)c(Br)cc12 [Compound 8b, (2E)-3,6,8-Tribromo-4-methyl-2-oxo-2H-chromen-7-yl Cinnamate]
IC50 [1]: 96.8 ± 3.21 µM | IC50 [2]: 69 ± 2.14 µM
